Measurements from ChEMBL document CHEMBL1201862, “PubChem BioAssay data set” (2004).
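These data come from cells grown in 96-well plates and exposed to compound for 48 hours at five concentrations. Abbreviation: GI50, concentration required for 50% inhibition of growth.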 Activity calls are given as the source filed them. Rule as the data show it: active = GI50 up to about 1.1 µM and inactive = higher.

Legend:
Experiment in all cases: DTP human tumour cell line panel, 48 h
786-0 = tested on: 786-0
CCRF-CEM = tested on: CCRF-CEM
COLO 205 = tested on: COLO 205
HCT-15 = tested on: HCT-15
HOP-92 = tested on: HOP-92
HT-29 = tested on: HT-29
Hs-578T = tested on: Hs-578T
IGROV-1 = tested on: IGROV-1
KM12 = tested on: KM12
MCF7 = tested on: MCF7
MOLT-4 = tested on: MOLT-4
NCI-H460 = tested on: NCI-H460
OVCAR-8 = tested on: OVCAR-8
SF-295 = tested on: SF-295
SNB-75 = tested on: SNB-75
SW-620 = tested on: SW-620
HOP-62 = tested on: HOP-62
UACC-62 = tested on: UACC-62
DU-145 = tested on: DU-145
MDA-MB-435 = tested on: MDA-MB-435

Compound | GI50 (786-0) | GI50 (CCRF-CEM) | GI50 (COLO 205) | GI50 (HCT-15) | GI50 (HOP-92) | GI50 (HT-29) | GI50 (Hs-578T) | GI50 (IGROV-1) | GI50 (KM12) | GI50 (MCF7) | GI50 (MOLT-4) | GI50 (NCI-H460) | GI50 (OVCAR-8) | GI50 (SF-295) | GI50 (SNB-75) | GI50 (SW-620) | GI50 (HOP-62) | GI50 (UACC-62) | GI50 (DU-145) | GI50 (MDA-MB-435)
CCNc1cc2c(cc1O)CC[C@@H]1[C@@H]2CC[C@]2(C)[C@@H](O)CC[C@@H]12 | 9.91 µM (inactive) | 1.41 µM (inactive) | 14.4 µM (inactive) | 0.942 µM | 10.3 µM (inactive) | 15.8 µM (inactive) | 3.62 µM (inactive) | 15.5 µM (inactive) | 9.04 µM (inactive) | 8.43 µM (inactive) | 3.13 µM (inactive) | 0.489 µM (active) | 11.7 µM (inactive) | 0.912 µM (active) | 0.272 µM (active) | 2.82 µM (inactive) |  |  |  | 
COc1ccc2c(c1)c(Cc1c(C)n(C)c3ccc(OC)cc13)c(C)n2C | 86.1 µM (inactive) | > 100 µM (inactive) | > 100 µM (inactive) | > 100 µM | > 100 µM (inactive) | > 100 µM (inactive) |  | > 100 µM (inactive) | > 100 µM (inactive) |  | > 100 µM (inactive) | > 100 µM (inactive) | > 100 µM (inactive) | > 100 µM (inactive) | > 100 µM (inactive) | > 100 µM (inactive) | > 100 µM (inactive) | > 100 µM (inactive) |  | 
CNC(=S)N/N=C(\C)c1cc(OC)c(OC)cc1O | > 100 µM (inactive) | > 100 µM (inactive) | > 100 µM (inactive) | > 100 µM |  | > 100 µM (inactive) |  | > 100 µM (inactive) | > 100 µM (inactive) | > 100 µM (inactive) | > 100 µM (inactive) | > 100 µM (inactive) | > 100 µM (inactive) |  | > 100 µM (inactive) | > 100 µM (inactive) | > 100 µM (inactive) | > 100 µM (inactive) | > 100 µM (inactive) | > 100 µM (inactive)
O=C1CCC2(c3ccc(F)cc3)Nc3ncccc3N12 (stereo not drawn) | > 100 µM (inactive) | > 100 µM (inactive) | > 100 µM (inactive) | > 100 µM | > 100 µM (inactive) | > 100 µM (inactive) |  | > 100 µM (inactive) | > 100 µM (inactive) |  | > 100 µM (inactive) | > 100 µM (inactive) | > 100 µM (inactive) | > 100 µM (inactive) | 70.1 µM (inactive) | > 100 µM (inactive) | > 100 µM (inactive) | > 100 µM (inactive) |  | 
CCOC(=O)CCSS(=O)(=O)c1ccccc1 | 26 µM (inactive) | 28.4 µM (inactive) | 97.7 µM (inactive) | 53.2 µM | 86.7 µM (inactive) |  |  |  | > 100 µM (inactive) | 28.6 µM (inactive) |  | > 100 µM (inactive) | > 100 µM (inactive) | > 100 µM (inactive) | > 100 µM (inactive) | 22.2 µM (inactive) | > 100 µM (inactive) | > 100 µM (inactive) | > 100 µM (inactive) | > 100 µM (inactive)
COc1ccc(/C(Cl)=C(\C=O)c2ccc([N+](=O)[O-])cc2)cc1 | 13.3 µM (inactive) | 4.1 µM (inactive) | 19.1 µM (inactive) | 5.25 µM | 6.97 µM (inactive) | 4.57 µM (inactive) |  | 22.4 µM (inactive) | 2.4 µM (inactive) |  | 2.42 µM (inactive) | 18.3 µM (inactive) | 10.9 µM (inactive) | 13.2 µM (inactive) | 5.35 µM (inactive) | 4.34 µM (inactive) | 21.5 µM (inactive) | 7.67 µM (inactive) |  | 
COC12C=C(C)C(CC1)CC2C(=O)O (stereo not drawn) | > 100 µM (inactive) | > 100 µM (inactive) | > 100 µM (inactive) | > 100 µM | > 100 µM (inactive) | > 100 µM (inactive) |  | > 100 µM (inactive) | > 100 µM (inactive) |  | > 100 µM (inactive) | > 100 µM (inactive) | > 100 µM (inactive) | > 100 µM (inactive) | > 100 µM (inactive) | > 100 µM (inactive) | > 100 µM (inactive) | > 100 µM (inactive) |  | 
S=C1SCC2CCCN12 (stereo not drawn) | > 100 µM (inactive) | > 100 µM (inactive) | > 100 µM (inactive) | > 100 µM | > 100 µM (inactive) | > 100 µM (inactive) |  | > 100 µM (inactive) | > 100 µM (inactive) |  | > 100 µM (inactive) | > 100 µM (inactive) | > 100 µM (inactive) | > 100 µM (inactive) | > 100 µM (inactive) | > 100 µM (inactive) | > 100 µM (inactive) | > 100 µM (inactive) |  | 
CC(C)(C)[Si](C)(C)OC1C(=O)C[C@H]2CCCC[C@@H]12 (stereo partly drawn) | > 100 µM (inactive) | > 100 µM (inactive) | > 100 µM (inactive) | > 100 µM | 20.2 µM (inactive) | > 100 µM (inactive) |  | > 100 µM (inactive) | > 100 µM (inactive) |  | > 100 µM (inactive) | > 100 µM (inactive) | > 100 µM (inactive) | > 100 µM (inactive) | > 100 µM (inactive) | > 100 µM (inactive) | > 100 µM (inactive) | > 100 µM (inactive) |  | 
CC[C@@H](C)[C@@H]1NC(=O)C(C(C)=O)=C1O | 22.4 µM (inactive) | 5.19 µM (inactive) | 17.9 µM (inactive) | 20.2 µM | 43.4 µM (inactive) | 32.1 µM (inactive) |  | 25.6 µM (inactive) | 15.6 µM (inactive) |  | 11.4 µM (inactive) | 15.3 µM (inactive) | 24.9 µM (inactive) | 26.9 µM (inactive) | 25.4 µM (inactive) | 24.2 µM (inactive) | 18.3 µM (inactive) | 12.5 µM (inactive) |  | 
C=C1C(=O)OC2C[C@H](C)C3CC(=O)C(C)=C3CC12 (stereo partly drawn) | 13 µM (inactive) | 3.44 µM (inactive) | 10.4 µM (inactive) | 11.2 µM | 10.5 µM (inactive) | 12.5 µM (inactive) |  | 15.4 µM (inactive) | 16 µM (inactive) |  | 6.92 µM (inactive) | 21.9 µM (inactive) | 16.8 µM (inactive) | 25.2 µM (inactive) | 14.6 µM (inactive) | 4.81 µM (inactive) | 23.4 µM (inactive) | 11.8 µM (inactive) |  | 
Cn1c(=O)cc2[nH]c3ccccc3n2c1=O | 24 µM (inactive) | 41.5 µM (inactive) | 14.2 µM (inactive) | 33.7 µM | > 100 µM (inactive) | 49.3 µM (inactive) |  | > 100 µM (inactive) | > 100 µM (inactive) |  | > 100 µM (inactive) | 57.5 µM (inactive) | 43.8 µM (inactive) | > 100 µM (inactive) | > 100 µM (inactive) | 22.7 µM (inactive) | > 100 µM (inactive) | > 100 µM (inactive) |  | 
